Test results: US7449454B2, “Metallotexaphyrin derivatives” (Pharmacyclics, Inc., priority 2000, dated 2008)

Experiments:
[1] = Extinction coefficient by UV/Vis; type: physicochemical; details: for ε(methanol): in M-1·cm-1 (unit assumed)
Method: Four samples of increasing amounts of a test compound of Formula I (between 3 mg and 11 mg) were put into separate 10 ml flasks and dissolved in methanol. Each of the solutions and one control sample (containing no test compound) were diluted to volume. The absorption at 475 nm was measured by UV/Vis and recorded for each of the five samples. The extinction coefficient for each sample was determined accordingly.
The extinction coefficient for the test compound at 475 nm was determined by averaging the extinction coefficient for the four samples (not including the control). The above steps were repeated (at 733 nm) to determine the extinction coefficient for the test compound at 733 nm. When determining the extinction coefficient of aggregated test compounds LuTex acetate, cholate or deoxycholate, the extinction coefficient at 733 nm is not measured. Instead, the above steps were repeated substituting 4% acetic acid/methanol for methanol.

[2] = Solution pH in deionized water; type: physicochemical; details: H2O
Method: The test compound was mixed in 5 ml of deionized water to achieve a 2 mg/ml solution. The solution pH was measured using a Beckman pH meter.

[3] = Octanol/water partition coefficient; type: physicochemical
Method: The partition coefficient was measured using an adaptation of the procedure outlined in Drug Stability: Principles and Practices (AAI, Inc. Wilmington, N.C., 2nd Edition, 1995). A 10 ml solution of 10 mg/ml of the test compound of Formula I dissolved in deionized water was placed in a separator funnel, to which 10 ml of 1-octanol was added. The combined mixture was stirred. The mixture was left to separate and the absorption of the compound was measured in the water phase and in the octanol phase by UV/Vis at 413-417 nm (413-417 offers the closest match in absorbance between the octanol phase and the water phase. The octanol water partition coefficient is determined by the formula: […]
The above steps were then repeated using a 10 ml sample of test compound at 1.0 mg/ml.

[4] = Plasma concentration after injection in atherosclerotic rabbits; type: in vivo, NZW rabbits; details: rabbit, 10 mg/kg injected, 2 mg/ml solution
Method: Plasma pK and biodistribution of the different test compounds of Formula I in plaque are determined and compared with the plasma pK and biodistribution in normal arterial walls. Sixteen normal male NZW rabbits, each weighing 3.5-4.0 kg are obtained from R&R Rabbitry in Stanwood Oreg. Each rabbit is given an intramuscular injection of Ketamine/Rompun [(8.4 mg/kg)/(1.2 mg/kg)] and allowed to relax until the anesthetic takes effect. To induce deep anesthesia, the rabbits then receive a second dose of Ketamine/Rompun [(8.4 mg/kg)/1.2 mg/kg)] via intravenous injection. To expose the abdomen and back legs, each rabbit is shaved with a size 40 blade. Their eyes are coated with lubricant eye ointment (Artificial Tears).
A femoral artery cut down is performed on the right side of the rabbits. Lidocaine (2%) is injected subcutaneously around the femoral artery as a local anesthetic and also applied topically to prevent spasms. A No.4 French Fogarty balloon embolectomy catheter is inserted retrograde 15 cm into the abdominal aorta. The balloon is inflated with 0.5-0.75 ml of hypaque contrast and pulled 3.5 cm distally toward the femoral artery six times. The catheter is then withdrawn. […]
A 3 ml blood sample is taken from each of the rabbits and the cholesterol level for each sample is determined and recorded. […]
The clearance rate of the test compound is also particularly important to measure. Plasma samples from each of the test compounds (see part A of this example) are mixed with 10 mM Triton X-100 and the fluorescence optimum is measured at 745 nm by scanning between 700-800 nm using a 450 nm excitation. A standard curve is run to insure that the fluorescence of the samples lies on the linear portion of the curve. The entire fluorescence emission spectrum is observed by using both a monochromator and CCD array. This permits differentiating between the peak at 745 nm and any possible extraneous fluorescence that might have a different optimum, and tail off into the 745 nm region. Test compound accumulation is expressed as μg drug/g tissue (wet weight) or μg/ml in plasma.

[5] = Solubility in H2O (deionized water)
Method: This mixture was then shaken, and 1.5 ml of the supernatant removed by a syringe equipped with a 0.22 μm filter unit. After discarding the first 1 mL of the filtrate, the remaining 0.5 mL was collected and saved. 0.1 ml of the saved filtrate was added to a 25 ml flask and diluted with 4% Acetic Acid/Methanol solution to volume. The absorption of the diluted solution at 475 nm was measured by UVN is at 1, 4, and 24 hours after the solutions had been shaken as described above.

Row | ε(4% acetate/methanol) ([1]; 4% acetate/methanol, wavelength not given) | ε(methanol) ([1]; wavelength not printed (aggregated compound, 733 nm not measured)) | ε(methanol) ([1]; at 475 nm) | ε(methanol) ([1]; at 733 nm) | pH [2] | K (octanol/water) ([3]; 0.05 mg/ml) | pH(octanol/water) ([3]; 0.05 mg/ml) | K (octanol/water) ([3]; 0.5 mg/ml) | pH(octanol/water) ([3]; 0.5 mg/ml) | Plasma Concentration ([4]; 1 Hour post injection) | Plasma Concentration ([4]; 5 Hours post injection) | Plasma Concentration ([4]; 24 Hours post injection) | solubility in deionized water [5] | Substance
1 | 135000 M⁻¹ cm⁻¹ | 136000 |  |  |  |  |  |  |  |  |  |  |  | The lutetium (III) complex of: 4,5-diethyl-10,23-dimethyl-9,24-bis(3-hydroxypropyl)-16,17-bis[2-[2-(2-methoxyethoxy)ethoxy]ethoxy]pentaazapentacyclo[20.2.1.1^3,6.1^8,11.0^14,19]-heptacosa-1,3,5,7,9,11 (27),12,14,16,18,20,22(25),23-tridecaene bis deoxycholate [LuTex bis deoxycholate]
2 |  |  | 122800 | 40600 | 6.1 | 0.34 | 6.6 |  |  |  |  |  |  | The lutetium (III) complex of: 4,5-diethyl-10,23-dimethyl-9,24-bis(3-hydroxypropyl)-16,17-bis[2-[2-(2-methoxyethoxy)ethoxy]ethoxy]pentaazapentacyclo[20.2.1.1^3,6.1^8,11.0^14,19]-heptacosa-1,3,5,7,9,11(27),12,14,16,18,20,22(25), 23-tridecaene bis benzoate [LuTex bis benzoate]
3 |  |  | 126400 | 41700 | 5.5 | 0.02 | 5.6 | 0.02 | 5.1 | 3900 ng/mL | 500 ng/mL | 300 ng/mL | 2 to 2.5 mg/mL | The lutetium (III) complex of: 4,5-diethyl-10,23-dimethyl-9,24-bis(3-hydroxypropyl)-16,17-bis[2-[2-(2-methoxyethoxy)ethoxy]ethoxy]pentaazapentacyclo[20.2.1.1^3,6.1^8,11.0^14,19]-heptacosa-1,3,5,7,9,11(27),12,14,16,18,20,22(25), 23-tridecaene bis formate [LuTex bis formate]
4 |  |  |  |  |  |  |  |  |  |  |  |  | 50 to 80 mg/mL | lutetium complex of 4,5-diethyl-10,23-dimethyl-9,24-bis(3-hydroxypropyl)-16,17-bis[2-[2-(2-methoxyethoxy)ethoxy]ethoxy]pentaazapentacyclo-[20.2.1.1^3,6.1^8,11.0^14,19]heptacosa-1,3,5,7,9,11(27),12,14,16,18,20,22(25),23-tridecaene bis gluconate [LuTex bis gluconate]
